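Growth conditions: 96-well plates. Treatment: test compound, 48 hours, 5 concentrations. Analysis: linear interpolation between bracketing concentrations; unreached endpoints set to highest concentration. GI50 = concentration required for 50% inhibition of growth.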 Active and inactive are the calls of the source. Cut-off read from the data, not from the text of the source: active = GI50 up to about 1.1 µM and inactive = higher.

Common to all, as to assay: growth of human tumour cells (NCI), 48 h
For assay [1], the system named is COLO 205.
The test system of assay [2] is OVCAR-4.
Assay [3] relates to MDA-MB-435.
Assay [4] concerns BT-549.
The test system of assay [5] is EKVX.
Assay [6] has as its system SNB-19.
For assay [7], the system named is A549.
The subject of assay [8] is OVCAR-5.
Assay [9] concerns SF-268.
Assay [10] deals with SF-295.
Assay [11] concerns SK-MEL-5.
The subject of assay [12] is CCRF-CEM.
For assay [13], the system named is Hs-578T.
The subject of assay [14] is OVCAR-3.
For assay [15], the system named is LOX IMVI.
Assay [16] concerns SF-539.
Assay [17] relates to RPMI-8226.
The subject of assay [18] is NCI-H522.
For assay [19], the system named is 786-0.
Assay [20] relates to CAKI-1.

With `O=C(CCc1ccc(O)c(O)c1)NCCc1cc(O)c(O)c(O)c1`, the GI50 in assay [1] was 37.8 µM (inactive); in [2] it was 20.2 µM (inactive); in [3] it was 17.6 µM (inactive); in [4], 17 µM (inactive); in [5] it was 22.9 µM (inactive); in [6], > 100 µM (inactive). Further, the GI50 in assay [7] is 22.5 µM (inactive); in assay [8], 61.2 µM (inactive); in assay [9] it was 41.1 µM (inactive); in [10], 19 µM (inactive); in assay [11], 23.3 µM (inactive); in assay [12], 44.5 µM (inactive). Besides, the GI50 in [13] was 78.3 µM (inactive); in [14], 19.8 µM (inactive); in [15] it was 17.7 µM (inactive); in [16], > 100 µM (inactive); in assay [17] it was 36.7 µM (inactive); in [18], 17.2 µM (inactive). Also, the GI50 in assay [19] is 18.6 µM (inactive).
As for `CC(=O)N1CCn2c1nc1cc(Cl)ccc12`, the GI50 was > 100 µM (inactive) in assay [1]; > 100 µM (inactive) in assay [2]; > 100 µM (inactive) in assay [3]; > 100 µM (inactive) in assay [4]; 54.3 µM (inactive) in assay [5]; 69 µM (inactive) in assay [6]. Moreover, the GI50 is > 100 µM (inactive) in assay [7]; > 100 µM (inactive) in assay [8]; 32.2 µM (inactive) in assay [9]; 47.8 µM (inactive) in assay [10]; > 100 µM (inactive) in assay [11]; > 100 µM (inactive) in assay [12]. For the same compound, the GI50 is 31.4 µM (inactive) in [13]; 95.1 µM (inactive) in assay [14]; 39.2 µM (inactive) in [15]; > 100 µM (inactive) in assay [20]; 26.4 µM (inactive) in assay [16]; 42.5 µM (inactive) in [18]. The GI50 in [19] is > 100 µM (inactive).
For `CCCCCC#CCOC(=O)C(=[N+]=[N-])P(=O)(c1ccccc1)c1ccccc1`, the GI50 in assay [3], in assay [4], in assay [5], in [6], in assay [7] and in [8] was > 10 µM (inactive) in each case. The GI50 in assay [9], in [10], in assay [11], in assay [13], in assay [14] and in assay [15] was > 10 µM (inactive) throughout. Also, the values for the GI50 in [16], in assay [17] and in assay [19] were > 10 µM (inactive), 9.84 µM (inactive) and > 10 µM (inactive), respectively.
Take `COc1ccc(-c2nnc3n(Cc4ccccc4)c4ccccc4n3c2=O)cc1`: the GI50 is > 100 µM (inactive) in [1]; 6.01 µM (inactive) in assay [2]; 4.76 µM (inactive) in assay [3]; > 100 µM (inactive) in assay [4]; 29.8 µM (inactive) in assay [5]; 23.2 µM (inactive) in assay [6]. Further, the GI50 in [7] was 45 µM (inactive); in [8], 42.8 µM (inactive); in assay [9] it was 22.7 µM (inactive); in assay [10], 15.9 µM (inactive); in assay [11], 53.5 µM (inactive); in assay [12], > 100 µM (inactive). The GI50 is 22.1 µM (inactive) in assay [13]; 49.9 µM (inactive) in [15]; 13.9 µM (inactive) in assay [20]; 13.2 µM (inactive) in assay [16]; 17.3 µM (inactive) in assay [18]; 10.9 µM (inactive) in [19].
Take `COc1cccc(-c2cc(O)c3c(C)ccnc3n2)c1`: the GI50 in assay [1] is 0.0199 µM (active); in [2], 18 µM (inactive); in assay [3], < 0.01 µM (active); in assay [4], 21.2 µM (inactive); in assay [5], 0.225 µM (active); in assay [6], 0.031 µM (active). In addition, the GI50 in [7] was 0.0518 µM (active); in assay [8] it was 0.0748 µM (active); in [9] it was 0.0439 µM (active); in assay [10] it was 0.029 µM (active); in assay [11] it was 0.0241 µM (active); in [12], 0.029 µM (active). The GI50 in assay [13] is 0.0222 µM (active); in assay [14], 0.0186 µM (active); in assay [15], 0.0625 µM (active); in assay [16], 0.0272 µM (active); in [17] it was 0.0327 µM (active); in assay [18], 0.0275 µM (active). In [19], the GI50 was 0.0449 µM (active).
As for `CCC1(COC(NC(=O)c2ccccc2)(C(F)(F)F)C(F)(F)F)COC1`, the GI50 in assay [1], in [3], in assay [4], in assay [5], in assay [6] and in assay [7] was > 100 µM (inactive) throughout. Besides, the GI50 in assay [8], in assay [9], in [11], in [12], in [13] and in assay [15] was > 100 µM (inactive) in each case. The GI50 in assay [20], in assay [16], in [17] and in [19] was > 100 µM (inactive) each time.
Turning to `COc1cccc2c1C(=O)c1c(O)c3c(c(O)c1C2=O)C[C@@](O)(C(=O)CO)CC3OC1CC(O)C(O)C(C)O1` (stereo not given in full), the GI50 in [2] was 1.01 µM (active); in assay [3], 0.834 µM (active); in [4] it was 0.279 µM (active); in assay [5], 1.72 µM (inactive); in [6], 0.0822 µM (active); in assay [7], 0.104 µM (active). Also, the GI50 is 0.424 µM (active) in [8]; 0.21 µM (active) in [9]; 0.104 µM (active) in assay [10]; 0.142 µM (active) in assay [11]; 0.0217 µM (active) in assay [12]; 0.583 µM (active) in assay [14]. The GI50 is 0.108 µM (active) in assay [15]; 0.185 µM (active) in [20]; < 0.0358 µM (active) in assay [16]; 0.199 µM (active) in assay [17]; 0.211 µM (active) in assay [18]; 0.103 µM (active) in assay [19].
`COc1ccc(Nc2nn3c(=O)c4c(C)c(C)sc4nc3s2)cc1`: the GI50 in assay [1] is > 100 µM (inactive); in assay [2], 24.4 µM (inactive); in assay [3] it was 34.7 µM (inactive); in assay [4], > 100 µM (inactive); in [6] it was 47.6 µM (inactive); in [7], 18.6 µM (inactive). Also, the GI50 in assay [8] is 52.4 µM (inactive); in assay [9] it was 5.98 µM (inactive); in assay [10], 37.7 µM (inactive); in [11] it was 41.1 µM (inactive); in assay [12], 31.6 µM (inactive); in assay [13], 79.1 µM (inactive). The GI50 in [14] is 29.1 µM (inactive); in assay [15] it was 56.9 µM (inactive); in [20] it was 39.3 µM (inactive); in assay [16] it was 33 µM (inactive); in assay [18], 25.5 µM (inactive); in [19] it was 23.2 µM (inactive).
In the case of `O=C(NNC(=S)Nc1ccc(Cl)cc1)C12CC3CC(CC(C3)C1)C2`, the GI50 is 3.32 µM (inactive) in assay [1]; 4.92 µM (inactive) in assay [2]; 7.53 µM (inactive) in assay [3]; 11.6 µM (inactive) in assay [4]; 5.73 µM (inactive) in [5]; 5.15 µM (inactive) in [6]. The GI50 is 3.84 µM (inactive) in assay [7]; 20.3 µM (inactive) in assay [8]; 6.05 µM (inactive) in assay [9]; 5.87 µM (inactive) in assay [10]; 3.85 µM (inactive) in [11]; 1.29 µM (inactive) in [12]. Moreover, the GI50 in [13] is 17.1 µM (inactive); in [14], 2.45 µM (inactive); in assay [15], 2.53 µM (inactive); in [20] it was 7.19 µM (inactive); in assay [16], 3.93 µM (inactive); in assay [18] it was 3.58 µM (inactive). In addition, the GI50 in assay [19] is 5.15 µM (inactive).
For `CC1(C)Cc2c(sc3[nH]c(=S)[nH]c(=S)c23)CS1`, the GI50 in assay [1] is 32.1 µM (inactive); in [2] it was 18.2 µM (inactive); in assay [3], 29.9 µM (inactive); in assay [4], 46.3 µM (inactive); in [6] it was 54.8 µM (inactive); in [7], 59.2 µM (inactive). In addition, the GI50 in assay [9] was 32.7 µM (inactive); in [11] it was 29.6 µM (inactive); in assay [12] it was 29.4 µM (inactive); in assay [13], 45.2 µM (inactive); in assay [14], 26.2 µM (inactive); in assay [15], 32.8 µM (inactive). Besides, the GI50 is 30.5 µM (inactive) in assay [20], 37.9 µM (inactive) in [16], 25.1 µM (inactive) in assay [17] and 85.9 µM (inactive) in assay [19].
Regarding `c1ccc(-c2cc(-c3cc(-c4ccccc4)[nH]n3)[nH]n2)cc1`, the GI50 in [1], in assay [2], in assay [3], in assay [4], in assay [5] and in assay [6] was > 100 µM (inactive) each time. For the same compound, the GI50 in [7], in assay [8], in assay [9], in assay [10], in [11] and in [12] was > 100 µM (inactive) throughout. In addition, the GI50 in assay [13], in assay [14], in [20], in assay [16], in assay [18] and in assay [19] was > 100 µM (inactive) in each case.

(Values after ChEMBL document CHEMBL1201862, “PubChem BioAssay data set” (2004).)
